Assay results published in patent US20120220546A1, “COMPOSTIONS DESIGNED FOR THE INHIBITION AND/OR BLOCKING OF THE EPITHELIAL/MESENCHYMAL TRANSITION” (priority 2009, published 2012).

Test system: zebrafish embryos
Test: Zebrafish embryo model of EMT inhibition
Assay type: in vivo
Settings: 100 μM DAPT dissolved in the medium, 32-hpf embryos
Experimental: The necessary embryos to develop the study were obtained and kept at 28.5° C. in the incubator until the treatment was to begin (24 hpf and 32 hpf). The embryos were dechorionated at 24 hpf and deposited on a Petri dish with E3 medium. Prior to injecting the product, the fish were treated with 0.04% tricaine and, once they were asleep, they were placed on an agarose plate with a number of wedge-shaped grooves, where the embryos were aligned and immobilised in order to be injected. The mixture of the assay product to be injected was loaded in the injection capillary and a volume of 15 nl was injected in the perivitelline space. 20 embryos were injected per condition. […] These were deposited in 24-well plates (5 embryos per well) in 0.5 ml of E3 medium without methylene blue or antibiotic, and incubated at 28.5° C. until they were to be analyzed. As a control, embryos were injected with HBSS +0.5% rhodamine-dextran. […]
The embryos were analyzed at 53, 72 and 96 hpf, and the presence of the following phenotypes was searched for in each of the embryos used in the study: • alteration of the somite bonds (somite boundaries). • morphological alterations of the embryos in general. • appearance of edemas in the pericardial area. • morphological alterations in the heart, as well as alterations in blood circulation and alterations in the formation of the vascular system.

For `C[C@H](NC(=O)Cc1cc(F)cc(F)c1)C(=O)N[C@H](C(=O)OC(C)(C)C)c1ccccc1` [DAPT], the “phenotype of positive control” value was “appearance of pericardial edemas, alterations of the somite bonds, and alteration or absence of blood circulation”.
